Test results taken from ChEMBL document CHEMBL5465560, “Selectivity Literature for EUbOPEN Chemogenomic Library” (2024).
Blank lines part the entries; values can stand above or below the molecule they belong to.

Columns and labels:
[1] = molecular target: Aurora kinase B (Homo sapiens, UniProt Q96GD4); assay: Selectivity interaction (KinomeScan (DiscoverX)) EUB0000607a AURKB; conditions: at 10 µM
[2] = molecular target: Calcium/calmodulin-dependent protein kinase type 1 (Homo sapiens) (UniProt Q14012); assay: Selectivity interaction (ActivX KiNativ screen (kinase selectivity in THP-1 cell lysates)) EUB0000639a CAMK1; assay type: subcellular; conditions: lysate, at 0.04 µM
Chain of Calcium/calmodulin-dependent protein kinase type 1 (Homo sapiens) (Q14012 whole entry, looked up): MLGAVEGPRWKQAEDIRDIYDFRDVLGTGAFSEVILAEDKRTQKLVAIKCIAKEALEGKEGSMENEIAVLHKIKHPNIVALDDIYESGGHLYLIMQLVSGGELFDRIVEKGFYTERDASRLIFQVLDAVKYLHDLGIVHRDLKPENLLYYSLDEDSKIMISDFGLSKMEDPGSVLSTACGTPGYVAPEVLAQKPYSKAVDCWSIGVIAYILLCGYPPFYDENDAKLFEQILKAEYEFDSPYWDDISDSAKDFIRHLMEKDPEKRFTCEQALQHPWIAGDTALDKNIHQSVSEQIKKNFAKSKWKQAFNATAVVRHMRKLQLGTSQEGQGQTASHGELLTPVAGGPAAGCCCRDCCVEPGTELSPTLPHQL

[3] = molecular target: T1, Mitogen-activated protein kinase 12 (Homo sapiens) (UniProt P53778); assay: Selectivity interaction (Kinase panel (Invitrogen)) EUB0000639a MAPK12; conditions: at 200 nM
T1 sequence (whole entry): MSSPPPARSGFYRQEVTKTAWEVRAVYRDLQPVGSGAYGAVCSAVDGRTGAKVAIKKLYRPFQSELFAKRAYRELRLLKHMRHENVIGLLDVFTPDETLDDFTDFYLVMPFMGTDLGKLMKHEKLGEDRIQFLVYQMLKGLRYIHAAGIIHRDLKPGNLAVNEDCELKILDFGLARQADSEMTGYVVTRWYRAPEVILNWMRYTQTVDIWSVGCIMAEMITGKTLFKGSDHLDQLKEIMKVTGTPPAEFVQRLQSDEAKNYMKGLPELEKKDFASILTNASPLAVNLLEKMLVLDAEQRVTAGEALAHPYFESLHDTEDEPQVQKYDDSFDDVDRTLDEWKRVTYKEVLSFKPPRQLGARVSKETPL

[4] = molecular target: Ribosomal protein S6 kinase alpha-3 (Homo sapiens, UniProt P51812); assay: Selectivity interaction (ActivX KiNativ screen (kinase selectivity in THP-1 cell lysates)) EUB0000639a RPS6KA3; assay type: subcellular; conditions: lysate, at 0.01 µM
Chain of Ribosomal protein S6 kinase alpha-3 (P51812 whole entry): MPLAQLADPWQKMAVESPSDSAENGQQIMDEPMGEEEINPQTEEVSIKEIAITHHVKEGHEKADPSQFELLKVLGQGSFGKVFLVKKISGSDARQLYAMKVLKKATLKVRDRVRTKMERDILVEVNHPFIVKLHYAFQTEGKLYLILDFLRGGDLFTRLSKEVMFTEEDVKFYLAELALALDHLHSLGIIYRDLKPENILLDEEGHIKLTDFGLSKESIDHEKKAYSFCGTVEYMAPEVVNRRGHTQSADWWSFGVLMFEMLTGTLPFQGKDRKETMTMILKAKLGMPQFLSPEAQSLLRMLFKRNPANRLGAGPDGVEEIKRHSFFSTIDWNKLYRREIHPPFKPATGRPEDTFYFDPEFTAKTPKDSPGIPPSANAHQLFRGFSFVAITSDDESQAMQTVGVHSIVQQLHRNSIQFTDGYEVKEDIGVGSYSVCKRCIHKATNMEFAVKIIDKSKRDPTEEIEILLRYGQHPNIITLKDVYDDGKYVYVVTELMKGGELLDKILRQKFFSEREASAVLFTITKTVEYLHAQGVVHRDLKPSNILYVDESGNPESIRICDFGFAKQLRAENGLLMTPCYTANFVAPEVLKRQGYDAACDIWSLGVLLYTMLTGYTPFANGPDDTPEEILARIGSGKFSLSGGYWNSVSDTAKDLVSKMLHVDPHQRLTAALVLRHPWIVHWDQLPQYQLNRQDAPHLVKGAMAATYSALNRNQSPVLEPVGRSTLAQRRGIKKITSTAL

[5] = molecular target: 5-hydroxytryptamine receptor 1B (Homo sapiens) (UniProt P28222); assay: Selectivity interaction (Safety Panel 44tm (Eurofins)) EUB0000162b HTR1B; conditions: at 10 µM
Chain of 5-hydroxytryptamine receptor 1B (Homo sapiens) (P28222 whole entry): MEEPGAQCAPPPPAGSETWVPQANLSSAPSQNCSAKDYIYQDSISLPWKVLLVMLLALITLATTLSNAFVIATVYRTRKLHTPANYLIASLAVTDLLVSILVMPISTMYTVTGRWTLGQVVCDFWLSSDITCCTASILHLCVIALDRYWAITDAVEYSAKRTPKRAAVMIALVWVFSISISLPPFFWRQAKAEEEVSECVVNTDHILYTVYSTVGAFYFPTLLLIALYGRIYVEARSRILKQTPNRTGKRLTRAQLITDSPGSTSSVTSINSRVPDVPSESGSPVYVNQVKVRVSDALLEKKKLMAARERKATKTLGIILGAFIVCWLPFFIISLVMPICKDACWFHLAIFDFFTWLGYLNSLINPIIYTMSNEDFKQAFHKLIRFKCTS

[6] = molecular target: MAP kinase-activated protein kinase 2 (Homo sapiens, UniProt P49137); conditions: at 10 µM
Chain of MAP kinase-activated protein kinase 2 (P49137 whole entry, looked up): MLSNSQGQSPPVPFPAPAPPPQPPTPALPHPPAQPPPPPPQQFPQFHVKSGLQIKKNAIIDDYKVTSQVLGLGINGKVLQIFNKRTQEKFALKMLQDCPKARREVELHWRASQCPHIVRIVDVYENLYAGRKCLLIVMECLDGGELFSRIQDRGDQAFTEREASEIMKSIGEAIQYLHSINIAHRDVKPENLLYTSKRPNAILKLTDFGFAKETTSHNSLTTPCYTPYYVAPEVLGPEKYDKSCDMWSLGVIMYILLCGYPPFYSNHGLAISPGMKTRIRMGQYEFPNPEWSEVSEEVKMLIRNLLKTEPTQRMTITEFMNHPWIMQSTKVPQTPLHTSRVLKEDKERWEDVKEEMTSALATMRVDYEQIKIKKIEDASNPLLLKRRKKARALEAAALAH

[7] = molecular target: T2, Dual serine/threonine and tyrosine protein kinase (Homo sapiens) (UniProt Q6XUX3); assay: Selectivity interaction (KinomeScan (DiscoverX)) EUB0000655a DSTYK; conditions: at 10 µM
T2 sequence (whole entry): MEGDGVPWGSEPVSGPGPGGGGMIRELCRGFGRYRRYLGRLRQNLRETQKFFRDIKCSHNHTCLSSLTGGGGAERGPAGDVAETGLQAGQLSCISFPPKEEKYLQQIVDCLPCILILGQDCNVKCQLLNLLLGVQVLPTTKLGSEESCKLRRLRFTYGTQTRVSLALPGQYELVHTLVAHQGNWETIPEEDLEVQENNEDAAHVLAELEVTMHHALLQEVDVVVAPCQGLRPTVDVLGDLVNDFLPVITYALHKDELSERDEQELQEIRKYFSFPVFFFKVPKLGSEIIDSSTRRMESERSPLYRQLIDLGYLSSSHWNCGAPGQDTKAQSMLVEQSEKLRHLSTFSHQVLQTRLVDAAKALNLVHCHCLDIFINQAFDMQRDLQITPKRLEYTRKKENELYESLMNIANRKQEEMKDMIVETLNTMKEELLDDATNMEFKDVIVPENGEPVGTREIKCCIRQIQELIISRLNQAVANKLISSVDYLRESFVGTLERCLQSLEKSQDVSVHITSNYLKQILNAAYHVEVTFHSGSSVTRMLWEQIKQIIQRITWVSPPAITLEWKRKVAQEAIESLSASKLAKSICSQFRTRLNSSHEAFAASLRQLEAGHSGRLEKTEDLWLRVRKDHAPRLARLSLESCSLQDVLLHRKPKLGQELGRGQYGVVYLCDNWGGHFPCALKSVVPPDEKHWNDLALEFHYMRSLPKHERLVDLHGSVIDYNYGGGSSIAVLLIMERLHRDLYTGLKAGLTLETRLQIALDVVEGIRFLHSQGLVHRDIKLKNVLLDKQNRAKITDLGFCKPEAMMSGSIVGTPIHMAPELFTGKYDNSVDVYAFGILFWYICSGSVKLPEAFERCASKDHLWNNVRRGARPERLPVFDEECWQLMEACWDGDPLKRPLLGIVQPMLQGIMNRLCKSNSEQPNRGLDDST

[8] = molecular target: T3, Non-receptor tyrosine-protein kinase TNK1 (Homo sapiens) (UniProt Q13470); assay: Selectivity interaction (KinomeScan (DiscoverX)) EUB0001079a TNK1; conditions: at 1 µM
T3 sequence (whole entry): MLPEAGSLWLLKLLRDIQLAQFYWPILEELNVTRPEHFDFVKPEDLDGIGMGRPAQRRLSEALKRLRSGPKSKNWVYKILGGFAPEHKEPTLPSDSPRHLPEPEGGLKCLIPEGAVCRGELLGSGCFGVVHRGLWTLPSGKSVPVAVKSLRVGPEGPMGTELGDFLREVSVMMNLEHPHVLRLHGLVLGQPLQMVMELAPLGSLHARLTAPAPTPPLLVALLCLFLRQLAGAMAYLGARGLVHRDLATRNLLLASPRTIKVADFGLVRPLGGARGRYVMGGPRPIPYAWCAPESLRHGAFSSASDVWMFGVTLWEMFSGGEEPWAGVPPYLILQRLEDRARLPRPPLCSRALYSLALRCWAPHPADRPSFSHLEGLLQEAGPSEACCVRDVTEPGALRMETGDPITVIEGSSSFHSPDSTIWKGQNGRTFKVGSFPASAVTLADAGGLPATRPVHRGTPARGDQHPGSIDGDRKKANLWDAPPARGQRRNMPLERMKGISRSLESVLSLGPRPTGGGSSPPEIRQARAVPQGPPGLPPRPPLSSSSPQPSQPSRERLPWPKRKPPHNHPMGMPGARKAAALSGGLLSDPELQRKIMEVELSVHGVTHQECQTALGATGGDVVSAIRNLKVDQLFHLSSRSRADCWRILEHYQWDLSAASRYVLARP

[9] = molecular target: Myosin light chain kinase, smooth muscle (Homo sapiens, UniProt Q15746); assay: Selectivity interaction (KinomeScan (DiscoverX)) EUB0000092b MYLK; conditions: at 10 µM
[10] = molecular target: Serine/threonine-protein kinase Nek4 (Homo sapiens) (UniProt P51957); assay: Selectivity interaction (KinomeScan (DiscoverX)) EUB0000092b NEK4; conditions: at 10 µM
Chain of Serine/threonine-protein kinase Nek4 (Homo sapiens) (P51957 whole entry, looked up): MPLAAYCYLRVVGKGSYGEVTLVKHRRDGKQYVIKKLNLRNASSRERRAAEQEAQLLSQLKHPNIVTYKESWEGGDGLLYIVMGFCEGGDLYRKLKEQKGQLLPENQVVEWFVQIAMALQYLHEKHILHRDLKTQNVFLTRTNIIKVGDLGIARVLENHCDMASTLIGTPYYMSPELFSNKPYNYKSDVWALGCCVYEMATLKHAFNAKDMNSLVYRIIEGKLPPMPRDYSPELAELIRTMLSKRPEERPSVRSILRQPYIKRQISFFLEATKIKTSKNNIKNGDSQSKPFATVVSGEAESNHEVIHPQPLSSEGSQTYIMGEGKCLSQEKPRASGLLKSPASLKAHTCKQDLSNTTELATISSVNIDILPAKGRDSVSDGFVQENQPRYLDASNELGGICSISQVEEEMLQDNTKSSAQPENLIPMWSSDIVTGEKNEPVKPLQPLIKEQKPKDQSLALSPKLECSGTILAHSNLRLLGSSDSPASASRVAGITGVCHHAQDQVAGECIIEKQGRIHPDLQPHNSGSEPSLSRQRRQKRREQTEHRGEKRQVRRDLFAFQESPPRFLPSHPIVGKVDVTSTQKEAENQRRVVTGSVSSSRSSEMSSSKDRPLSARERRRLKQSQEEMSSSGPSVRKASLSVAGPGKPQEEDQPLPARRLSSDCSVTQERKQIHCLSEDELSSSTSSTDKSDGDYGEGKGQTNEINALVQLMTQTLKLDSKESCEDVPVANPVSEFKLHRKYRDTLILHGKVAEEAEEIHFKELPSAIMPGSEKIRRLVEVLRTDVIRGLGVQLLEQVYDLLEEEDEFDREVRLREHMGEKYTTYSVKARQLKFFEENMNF

[11] = molecular target: Mast/stem cell growth factor receptor Kit (Homo sapiens, UniProt P10721); conditions: at 10 µM
Chain of Mast/stem cell growth factor receptor Kit (P10721 whole entry): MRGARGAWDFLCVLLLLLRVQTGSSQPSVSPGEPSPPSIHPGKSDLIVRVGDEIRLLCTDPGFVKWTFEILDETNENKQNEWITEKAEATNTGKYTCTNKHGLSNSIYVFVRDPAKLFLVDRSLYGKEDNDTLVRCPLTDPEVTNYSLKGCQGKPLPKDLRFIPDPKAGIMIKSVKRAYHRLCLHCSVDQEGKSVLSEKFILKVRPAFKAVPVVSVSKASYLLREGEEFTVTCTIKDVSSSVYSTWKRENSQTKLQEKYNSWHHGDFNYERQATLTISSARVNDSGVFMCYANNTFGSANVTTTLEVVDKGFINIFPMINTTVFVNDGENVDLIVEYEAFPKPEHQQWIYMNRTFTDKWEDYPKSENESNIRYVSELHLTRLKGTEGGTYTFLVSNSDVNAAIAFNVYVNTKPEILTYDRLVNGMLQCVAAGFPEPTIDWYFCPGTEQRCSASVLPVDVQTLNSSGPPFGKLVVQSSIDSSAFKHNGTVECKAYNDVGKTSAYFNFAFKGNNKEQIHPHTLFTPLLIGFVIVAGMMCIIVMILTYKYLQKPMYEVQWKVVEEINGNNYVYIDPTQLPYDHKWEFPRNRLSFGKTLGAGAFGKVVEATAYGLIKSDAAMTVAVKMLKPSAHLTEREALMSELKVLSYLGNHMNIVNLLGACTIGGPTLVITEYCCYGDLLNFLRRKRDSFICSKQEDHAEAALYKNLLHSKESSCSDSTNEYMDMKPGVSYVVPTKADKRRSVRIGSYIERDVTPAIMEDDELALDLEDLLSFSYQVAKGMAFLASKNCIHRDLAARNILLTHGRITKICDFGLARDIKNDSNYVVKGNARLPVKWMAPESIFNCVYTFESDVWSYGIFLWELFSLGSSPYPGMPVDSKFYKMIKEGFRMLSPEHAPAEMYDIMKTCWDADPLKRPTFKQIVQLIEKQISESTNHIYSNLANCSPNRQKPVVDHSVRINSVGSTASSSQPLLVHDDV

[12] = molecular target: Casein kinase II subunit alpha' (Homo sapiens) (UniProt P19784); assay: Selectivity interaction (KinomeScan (DiscoverX)) EUB0000618a CSNK2A2; conditions: at 10 µM
Chain of Casein kinase II subunit alpha' (Homo sapiens) (P19784 whole entry, looked up): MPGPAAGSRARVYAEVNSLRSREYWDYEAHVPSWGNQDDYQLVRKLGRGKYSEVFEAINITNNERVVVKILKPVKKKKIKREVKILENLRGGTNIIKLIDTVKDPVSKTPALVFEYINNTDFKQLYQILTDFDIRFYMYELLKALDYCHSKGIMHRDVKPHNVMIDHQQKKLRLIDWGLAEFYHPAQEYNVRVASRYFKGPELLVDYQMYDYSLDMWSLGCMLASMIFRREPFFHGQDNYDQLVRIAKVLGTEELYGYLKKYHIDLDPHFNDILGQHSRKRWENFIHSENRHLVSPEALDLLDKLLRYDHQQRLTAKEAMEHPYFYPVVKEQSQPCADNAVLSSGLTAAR

[13] = molecular target: Serine/threonine-protein kinase pim-3 (Homo sapiens) (UniProt Q86V86); assay: Selectivity interaction (KinomeScan (DiscoverX)) EUB0000618a PIM3; conditions: at 10 µM

Chain of Aurora kinase B (Q96GD4 whole entry): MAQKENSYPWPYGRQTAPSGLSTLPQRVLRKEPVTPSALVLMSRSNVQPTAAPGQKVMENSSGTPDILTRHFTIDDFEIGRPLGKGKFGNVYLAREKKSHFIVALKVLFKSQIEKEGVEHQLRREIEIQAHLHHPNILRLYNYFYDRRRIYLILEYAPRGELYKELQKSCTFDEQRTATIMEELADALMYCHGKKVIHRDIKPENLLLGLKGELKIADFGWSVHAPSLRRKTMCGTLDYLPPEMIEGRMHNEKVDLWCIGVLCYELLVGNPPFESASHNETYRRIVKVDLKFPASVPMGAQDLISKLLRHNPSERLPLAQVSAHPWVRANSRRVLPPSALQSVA

SMILES: CNC(=O)Nc1ccc(-c2nc(N3CC4CCC(C3)O4)c3cnn(C4CCC5(CC4)OCCO5)c3n2)cc1
% of control [1]: 92%

% of inhibition [2]: -6.2%
% of inhibition [3]: 7.12%
% of inhibition [4]: 10.7%
SMILES: CC[C@@H]1[C@H](F)C(=O)N[C@@H]1COc1nccc2cc(C(N)=O)c(OC)cc12 [ZIMLOVISERTIB]

SMILES: CN(C)C(=O)Cn1cc(-c2ccc(-c3cncc4ccccc34)cc2)cn1
% of control [5]: 53%

SMILES: COCC(=O)NC/C=C/c1ccc2ncnc(Nc3ccc(Oc4ccc(C)nc4)c(C)c3)c2c1 [CP-724714]
% of control [6]: 100%

SMILES: CN(C)CCOc1ccc(-c2nc(-c3ccncc3)c(-c3ccc4c(c3)CC/C4=N\O)[nH]2)cc1
% of control [7]: 83%

SMILES: Nc1cnc(N2CCc3cc(S(=O)(=O)Nc4c(F)cc(Cl)cc4F)cc(N4CCCC4=O)c32)nc1 [TP-020n]
% of control [8]: 100%

SMILES: CCC(=O)N1CCN(c2ccc(-n3c(=O)ccc4cnc5ccc(-c6cnc7ccccc7c6)cc5c43)cc2C(F)(F)F)CC1
% of control [9]: 87%
% of control [10]: 86%

SMILES: Cc1cc([C@@H](C)Nc2ccccc2C(=O)O)c2nc(N3CCOCC3)cc(=O)n2c1 [AZD-6482]
% of control [11]: 91%

SMILES: O[C@H]1CC[C@H](Nc2ncc3nc(Nc4c(F)cc(F)cc4F)n([C@H]4CCOC4)c3n2)CC1
% of control [12]: 96%
% of control [13]: 100%
